In US12421238B2, “Selective dihydropyrrolopyrimidine JAK2 inhibitors” (CHENGDU JINRUI FOUNDATION BIOTECH CO., LTD., priority 2019, dated 2025):

How the values were obtained:
JAK2 = JAK2 (Homo sapiens, UniProt O60674); test: Kinase activity test on JAK2 (Caliper EZ Reader conversion rate); settings: for JAK1/JAK2 / JAK3/JAK2: ratio of IC50 values; for JAK1/JAK2: selectivity for JAK2 over JAK1; for JAK3/JAK2: selectivity for JAK2 over JAK3
TF-1 = TF-1 cell proliferation experiment (CellTiter Glo); format: cell-based; settings: Homo sapiens; TF-1 cells, 72 hours; read-out: TF-1 (μM), proliferation inhibition
[1] = Acute toxicity test, single oral administration to ICR mice (MTD); format: in vivo; settings: ICR, mouse, in vivo, po, read-out: MTD (maximum tolerated dose)
JAK1 = JAK1 (Homo sapiens, UniProt P23458); test: Kinase activity test on JAK1 (Caliper EZ Reader conversion rate)
HEL92.1.7 = HEL92.1.7 cell proliferation experiment (Cell Titer-Glo); format: cell-based; settings: Homo sapiens, HEL 92.1.7; HEL92.1.7 cells, 72 hours
[2] = Pharmacokinetic test in SD rats, intragastric administration; format: in vivo; settings: rat, po, single intragastric administration, 25 mg/kg, plasma; for Cmax: read-out: Blood concentration Cmax; for AUC(0-t): read-out: Curve area AUClast; for half-life: read-out: Half life t1/2 (converted); for Tmax: read-out: Time to peak Tmax
Description: SD rats were used as the test animals.
Standard curve and preparation and processing of quality control samples:
Stock solution was diluted with 50% acetonitrile/water solution to obtain standard working solutions of 0.04, 0.10, 0.20, 0.40, 1.00, 2.00, 4.00 μg/mL, and quality control working solutions of 0.10, 1.00, 3.00 μg/mL. 2.50 μL of standard curve working solutions and quality control working solutions were added to 47.5 μL of blank rat plasma, respectively, to obtain standard curve solutions having analyte concentrations of 2.00, 5.00, 10.00, 20.00, 50.00, 100.00, 200.00 ng/mL and quality control samples having concentrations of 5.00, 50.00, and 150.00 ng/mL. 200 μL of acetonitrile (containing 5 ng/mL of the internal standard loratadine) was added. After vortexing for 3 minutes, the solutions were centrifuged at 15000 rpm at 4° C. for 15 minutes. 100 μL of the supernatant was taken for LC-MS/MS analysis. WinNonlin® 8.0 was used to calculate the experimental results.

JAK3 = biological target: T1, JAK3 (Homo sapiens, UniProt P52333); test: Kinase activity test on JAK3 (Caliper EZ Reader conversion rate)
T1 sequence (P52333 1-1124): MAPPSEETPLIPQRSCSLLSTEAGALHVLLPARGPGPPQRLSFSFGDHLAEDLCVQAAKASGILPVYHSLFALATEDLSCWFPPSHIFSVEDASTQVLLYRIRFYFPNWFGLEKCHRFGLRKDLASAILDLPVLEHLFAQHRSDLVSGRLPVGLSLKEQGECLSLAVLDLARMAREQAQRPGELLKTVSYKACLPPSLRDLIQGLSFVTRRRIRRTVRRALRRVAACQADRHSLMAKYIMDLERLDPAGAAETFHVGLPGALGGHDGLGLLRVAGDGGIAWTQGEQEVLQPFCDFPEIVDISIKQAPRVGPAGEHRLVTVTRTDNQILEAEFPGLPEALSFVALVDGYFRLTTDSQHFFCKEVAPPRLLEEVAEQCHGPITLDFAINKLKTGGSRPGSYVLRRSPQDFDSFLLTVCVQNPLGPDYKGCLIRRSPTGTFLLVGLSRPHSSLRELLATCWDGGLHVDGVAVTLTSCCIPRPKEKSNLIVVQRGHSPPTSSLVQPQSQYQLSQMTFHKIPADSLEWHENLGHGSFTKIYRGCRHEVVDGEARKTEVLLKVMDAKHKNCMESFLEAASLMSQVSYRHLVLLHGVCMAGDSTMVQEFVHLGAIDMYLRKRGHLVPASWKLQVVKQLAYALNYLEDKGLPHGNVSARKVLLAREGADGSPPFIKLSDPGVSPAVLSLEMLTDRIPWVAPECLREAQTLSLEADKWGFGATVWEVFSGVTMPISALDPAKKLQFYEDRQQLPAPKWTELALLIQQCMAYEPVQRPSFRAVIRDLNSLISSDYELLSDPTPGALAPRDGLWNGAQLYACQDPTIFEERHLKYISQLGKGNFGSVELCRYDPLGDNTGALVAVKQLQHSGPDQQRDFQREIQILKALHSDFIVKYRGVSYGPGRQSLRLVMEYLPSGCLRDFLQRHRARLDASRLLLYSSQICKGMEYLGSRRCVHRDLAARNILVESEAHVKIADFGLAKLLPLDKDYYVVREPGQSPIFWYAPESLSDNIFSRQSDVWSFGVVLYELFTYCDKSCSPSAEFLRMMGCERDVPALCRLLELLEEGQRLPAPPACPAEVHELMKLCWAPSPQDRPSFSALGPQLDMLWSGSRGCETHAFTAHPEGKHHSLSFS

ICR mice = test: Acute toxicity test, single oral administration to ICR mice (MTD); format: in vivo

Chain of JAK2 (O60674 whole entry): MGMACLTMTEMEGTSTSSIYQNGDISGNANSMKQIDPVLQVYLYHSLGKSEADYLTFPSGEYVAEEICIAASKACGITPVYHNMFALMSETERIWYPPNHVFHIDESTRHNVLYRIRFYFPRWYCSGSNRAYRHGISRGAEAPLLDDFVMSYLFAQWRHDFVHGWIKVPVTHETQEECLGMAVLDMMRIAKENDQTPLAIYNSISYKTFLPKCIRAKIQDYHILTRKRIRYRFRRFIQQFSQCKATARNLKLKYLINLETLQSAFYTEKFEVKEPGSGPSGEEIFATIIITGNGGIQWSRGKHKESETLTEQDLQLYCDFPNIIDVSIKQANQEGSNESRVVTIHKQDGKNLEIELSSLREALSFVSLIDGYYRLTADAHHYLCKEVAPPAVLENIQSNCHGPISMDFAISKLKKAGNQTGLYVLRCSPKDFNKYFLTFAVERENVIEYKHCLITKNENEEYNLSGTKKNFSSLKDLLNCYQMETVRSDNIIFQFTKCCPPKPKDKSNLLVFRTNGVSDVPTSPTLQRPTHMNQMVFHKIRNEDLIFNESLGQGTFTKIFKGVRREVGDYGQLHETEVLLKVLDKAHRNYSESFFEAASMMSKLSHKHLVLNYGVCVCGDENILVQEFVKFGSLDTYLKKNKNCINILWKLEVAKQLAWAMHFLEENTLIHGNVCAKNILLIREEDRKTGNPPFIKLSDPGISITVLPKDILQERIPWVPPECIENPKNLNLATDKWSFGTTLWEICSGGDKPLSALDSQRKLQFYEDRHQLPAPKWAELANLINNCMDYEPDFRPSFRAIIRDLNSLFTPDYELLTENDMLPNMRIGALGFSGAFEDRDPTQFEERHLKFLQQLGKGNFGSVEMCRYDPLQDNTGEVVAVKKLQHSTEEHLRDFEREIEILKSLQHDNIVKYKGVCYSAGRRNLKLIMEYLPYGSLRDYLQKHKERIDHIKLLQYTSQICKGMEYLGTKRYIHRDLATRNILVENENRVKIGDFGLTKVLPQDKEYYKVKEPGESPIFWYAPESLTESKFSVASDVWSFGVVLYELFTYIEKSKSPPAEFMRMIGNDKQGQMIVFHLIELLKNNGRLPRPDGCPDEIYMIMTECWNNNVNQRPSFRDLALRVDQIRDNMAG
Chain of JAK1 (P23458 whole entry): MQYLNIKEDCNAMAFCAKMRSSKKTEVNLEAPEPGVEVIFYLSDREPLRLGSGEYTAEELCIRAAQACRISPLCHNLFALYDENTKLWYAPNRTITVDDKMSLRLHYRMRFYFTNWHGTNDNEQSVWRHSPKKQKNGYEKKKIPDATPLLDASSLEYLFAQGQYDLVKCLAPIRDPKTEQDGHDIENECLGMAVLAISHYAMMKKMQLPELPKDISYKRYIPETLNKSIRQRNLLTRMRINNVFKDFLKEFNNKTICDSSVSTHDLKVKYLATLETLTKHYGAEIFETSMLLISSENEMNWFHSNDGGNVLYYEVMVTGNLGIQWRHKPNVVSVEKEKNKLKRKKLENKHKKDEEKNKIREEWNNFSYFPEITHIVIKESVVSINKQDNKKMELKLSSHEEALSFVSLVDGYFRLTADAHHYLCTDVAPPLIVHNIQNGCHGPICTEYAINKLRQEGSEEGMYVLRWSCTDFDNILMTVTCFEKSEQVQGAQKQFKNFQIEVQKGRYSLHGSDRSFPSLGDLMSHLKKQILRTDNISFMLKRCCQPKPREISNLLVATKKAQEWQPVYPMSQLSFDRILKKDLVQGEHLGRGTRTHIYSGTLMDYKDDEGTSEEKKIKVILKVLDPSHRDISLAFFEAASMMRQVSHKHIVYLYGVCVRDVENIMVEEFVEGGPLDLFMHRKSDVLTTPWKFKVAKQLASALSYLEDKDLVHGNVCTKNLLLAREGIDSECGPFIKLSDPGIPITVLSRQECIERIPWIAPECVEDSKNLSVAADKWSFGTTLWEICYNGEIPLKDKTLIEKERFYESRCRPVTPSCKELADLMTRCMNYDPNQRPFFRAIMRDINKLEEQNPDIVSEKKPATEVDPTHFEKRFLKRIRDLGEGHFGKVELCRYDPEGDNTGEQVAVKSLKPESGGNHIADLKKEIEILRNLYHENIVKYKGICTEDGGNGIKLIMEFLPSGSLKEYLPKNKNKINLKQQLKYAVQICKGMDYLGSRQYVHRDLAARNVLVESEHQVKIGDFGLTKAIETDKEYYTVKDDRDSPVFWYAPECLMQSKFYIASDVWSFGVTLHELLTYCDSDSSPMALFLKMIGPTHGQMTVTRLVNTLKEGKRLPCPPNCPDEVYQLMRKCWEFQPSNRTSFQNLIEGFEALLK

Structure (SMILES) | IC50 (JAK2) | JAK1/JAK2 (JAK2) | JAK3/JAK2 (JAK2) | IC50 (TF-1) | MTD at 6 days [1] | IC50 (JAK1) | IC50 (HEL92.1.7) | Cmax [2] | AUC(0-t) [2] | half-life [2] | Tmax [2] | IC50 (JAK3) | MTD (maximum tolerated dose) (ICR mice)
CC(C)(C)NS(=O)(=O)c1cccc(N2CCc3cnc(Nc4ccc(OCCN5CCCC5)cc4)nc32)c1 [Compound I-1] | 2.5 nM | 84 | 504 | 0.15 µM | > 2000 mg/kg | 210 nM | 0.23 µM | 998 ng/mL | 798 ng·h/mL | 5.8 h | 1 h | 1260 nM | –
CC(C)(C)NS(=O)(=O)c1cccc(N2CCc3cnc(Nc4ccc(OCCN5CCNCC5)cc4)nc32)c1 [Compound I-2] | 1.1 nM | 172 | 891 | 0.21 µM | ≥ 1000 mg/kg | 189 nM | 0.3 µM | 1020 ng/mL | 839 ng·h/mL | 6 h | 1.5 h | 980 nM | 1500 mg/kg
CC(C)(C)NS(=O)(=O)c1cccc(N2CCc3cnc(Nc4ccc(OCCN5CCOCC5)cc4)nc32)c1 [Compound I-3] | 1 nM | 100 | 877 | 0.18 µM | – | 100 nM | 0.19 µM | 1230 ng/mL | 903 ng·h/mL | 5.9 h | 1.5 h | 877 nM | –
CC(C)(C)NS(=O)(=O)c1cccc(N2CCc3cnc(Nc4ccc(OCCN5CCCCC5)cc4)nc32)c1 [Compound I-5] | 1.1 nM | 90 | 1118 | 0.22 µM | – | 99 nM | 0.18 µM | 1120 ng/mL | 812 ng·h/mL | 6.1 h | 1.5 h | 1230 nM | –
CC(C)(C)NS(=O)(=O)c1cccc(N2CCc3cnc(Nc4ccc(OCCN5CCS(=O)(=O)CC5)cc4)nc32)c1 [Compound I-6] | 0.75 nM | 129 | 1187 | 0.15 µM | – | 97 nM | 0.35 µM | – | – | – | – | 890 nM | –
CN1CCC(Cc2ccc(Nc3ncc4c(n3)N(c3cccc(S(=O)(=O)NC(C)(C)C)c3)CC4)cc2)CC1 [Compound I-7] | 0.9 nM | 114 | 1000 | 0.19 µM | – | 103 nM | 0.25 µM | – | – | – | – | 900 nM | –
CCN1CCN(Cc2ccc(Nc3ncc4c(n3)N(c3cccc(S(=O)(=O)NC(C)(C)C)c3)CC4)cc2)CC1 [Compound I-8] | 1.2 nM | 126 | 833 | 0.23 µM | – | 151 nM | 0.33 µM | – | – | – | – | 1000 nM | –
CC(C)(C)NS(=O)(=O)c1cccc(N2CCc3cnc(Nc4ccc(CN5CCS(=O)(=O)CC5)cc4)nc32)c1 [Compound I-9] | 1.7 nM | 112 | 782 | 0.21 µM | – | 191 nM | 0.17 µM | – | – | – | – | 1330 nM | –
CC(C)(C)NS(=O)(=O)c1cccc(N2CCc3cnc(Nc4ccc(CC5CCOCC5)cc4)nc32)c1 [Compound I-10] | 0.5 nM | 200 | 1974 | 0.19 µM | – | 100 nM | 0.2 µM | – | – | – | – | 987 nM | –
CC(C)(C)NS(=O)(=O)c1cccc(N2CCc3cnc(Nc4ccc(CN5CCOCC5)cc4)nc32)c1 [Compound I-11] | 0.8 nM | 131 | 1225 | 0.17 µM | – | 105 nM | 0.24 µM | – | – | – | – | 980 nM | –
CN1CCN(Cc2ccc(Nc3ncc4c(n3)N(c3cccc(S(=O)(=O)NC(C)(C)C)c3)CC4)cc2)CC1 [Compound I-12] | 0.7 nM | 140 | 1256 | 0.2 µM | – | 98 nM | 0.22 µM | – | – | – | – | 879 nM | –
CC(C)(C)NS(=O)(=O)c1cccc(N2CCc3cnc(Nc4ccc(CN5CCSCC5)cc4)nc32)c1 [Compound I-13] | 1 nM | 89 | 865 | 0.27 µM | ≥ 1000 mg/kg | 89 nM | 0.31 µM | 979 ng/mL | 955 ng·h/mL | 5.5 h | 2 h | 865 nM | –
CC(C)(C)NS(=O)(=O)c1cccc(N2CCc3cnc(Nc4ccc(OCCN5CCSCC5)cc4)nc32)c1 [Compound I-14] | 1.1 nM | 93 | 907 | 0.28 µM | – | 102 nM | 0.43 µM | 1230 ng/mL | 900 ng·h/mL | 6.9 h | 1.5 h | 998 nM | –
CC(C)(C)NS(=O)(=O)c1cccc(N2CCc3cnc(Nc4ccc(N5CCNCC5)cc4)nc32)c1 [Compound I-16] | 2 nM | 101 | 695 | 0.15 µM | – | 203 nM | 0.21 µM | – | – | – | – | 1390 nM | –
CC(C)(C)NS(=O)(=O)c1cccc(N2CCc3cnc(Nc4ccc(N5CCOCC5)cc4)nc32)c1 [Compound I-17] | 2.2 nM | 100 | 709 | 0.14 µM | – | 221 nM | 0.25 µM | – | – | – | – | 1560 nM | –
CC(C)(C)NS(=O)(=O)c1cccc(N2CCc3cnc(Nc4ccc(N5CCCCC5)cc4)nc32)c1 [Compound I-18] | 0.7 nM | 156 | 1588 | 0.15 µM | – | 109 nM | 0.2 µM | – | – | – | – | 1110 nM | –
CN1CCC(c2ccc(Nc3ncc4c(n3)N(c3cccc(S(=O)(=O)NC(C)(C)C)c3)CC4)cc2)CC1 [Compound I-21] | 0.8 nM | 126 | 1235 | 0.15 µM | – | 101 nM | 0.22 µM | – | – | – | – | 988 nM | –
CC(C)(C)NS(=O)(=O)c1cccc(N2CCc3cnc(Nc4ccc(CN5CCCC5)cc4)nc32)c1 [Compound I-22] | 0.6 nM | 175 | 1455 | 0.22 µM | – | 105 nM | 0.24 µM | – | – | – | – | 873 nM | –
Cc1cnc(Nc2ccc(OCCN3CCCC3)cc2)nc1Nc1cccc(S(=O)(=O)NC(C)(C)C)c1 [Fedratinib, reference compound] | – | – | – | 1.57 µM | 250 mg/kg | – | 0.58 µM | 579 ng/mL | 559 ng·h/mL | 4 h | 1.5 h | – | –
